In patent US20230183656A1, “METHODS AND COMPOSITIONS FOR PURIFYING ADENO ASSOCIATED VIRUS PARTICLES OR ADENOVIRUSES” (Merck Patent GmbH, priority 2020, published 2023):

Columns and labels:
[1] = cited from earlier work
AAV9 = AAV9 release after cell lysis (titers as in Example 1); assay type: cell-based; settings: with NaCl, FIG. 5
Procedure: (§1) An AAV2 suspension upstream process is performed including a cell lysis step using various single reagents, like Triton X-100 (T100) or TDAO at various concentrations or 0.5 M NaCl, all at 37° C. The samples were centrifuged at ~13000 g for 5 min at different time points post lysis, and supernatants were removed and stored at -70° C. for assays. Physical titers were measured by enzyme-linked immunosorbent assay (ELISA) using an AAV2 Titration ELISA kit (Progen) following manufacturer’s protocol, genome titers were measured by quantitative PCR (qPCR) targeting a specific sequence within the transfer vector. All reagents and assay protocols are from MilliporeSigma unless otherwise specified. Among all the conditions tested, 0.5 M NaCl was the only one capable of releasing significant amounts of AAV2 at physical titer of e10 vp/mL and genome titer of e9 gc/mL levels (FIG. 1). Moreover, time-dependent effects from 30 min to 90 min post lysis for all 3 single reagents, and concentration-dependent effects from 0.5% to 1% for both single detergents have been observed (FIG. 1).
An AAV9 suspension upstream process is performed as in Example 1 but using both single reagents and double reagents combined with NaCl.

AAV2 = AAV2 release after cell lysis (physical titer by ELISA, genome titer by qPCR); assay type: cell-based; settings: for increase of AAV2 dissociation by addition to 0.5 M NaCl: 1% detergent added to 0.5 M NaCl, FIG. 2; for AAV2 viral titers after cell lysis: 90 min, 37° C., 0.5% Triton X-100, 0.5 M NaCl, or 0.5 M sodium chloride and 1% TDAO, FIG. 1 and 2
Procedure: as §1
The same process is performed as in Example 1 but with NaCl combined with different detergents.
To investigate the optimal concentration of TDAO in combination with 0.5 M NaCl, an AAV2 dissociation test using 0 to 4% of TDAO and including an additional lysis time of 60 min was performed. […] Furthermore, the best lysis time of 90 min was confirmed as before based on genome titers. When calculating % full viral particles (vp) as the ratio of genome titer to physical titer, it was noted that 2% TDAO also facilitated more release of full viral particles over time with ~100% full VP at 90 min post lysis due to unknown mechanisms (FIG. 4).

HEK293T-derived cells = test: Turbidity post lysis and % cell lysis (ViCell XR) in 3L Mobius bioreactor; assay type: cell-based, human; settings: AAV2, 3L Mobius at 72 hr PT; NaCl at 0.5 M; lysed cells to total cells before lysis
Procedure: Cell lysis performed according to the general procedure of Example 1 was performed with different reagents and compared in terms of turbidity reduction and lysis efficiency.
Each turbidity in Table 2 is an average of 1-3 bioreactors x 2 measurements. PT = post transfection. […] Cell counts were taken by ViCell XR before lysis and at 30 min post lysis, and % cell lysis was calculated as a ratio of lysed cells to total cells before lysis.

Compound: CCCCCCCCCCCCCC[N+](C)(C)[O-] [TDAO, N,N-Dimethyltertra decylamine N-oxide]
- biodegradation in 28 days [1]: 88%
- AAV9 dissociation, double reagents with 2% TDAO compared to 1% TDAO (AAV9): no benefits
- increase of AAV2 dissociation by addition of TDAO to 0.5 M NaCl (AAV2; 0 to 4% of TDAO, genome titers, FIG. 3): 3-5 fold
- increase of AAV2 dissociation by addition to 0.5 M NaCl (AAV2): 3-9 fold
- % full viral particles (ratio of genome titer to physical titer) (AAV2; 2% TDAO with 0.5 M NaCl, 90 min post lysis, FIG. 4): ~ 100%

Compound: Triton X-100 [reference compound]
- increase of AAV2 dissociation by addition to 0.5 M NaCl (AAV2): not
- AAV2 viral titers after cell lysis (AAV2): significantly reduced viral titers

Compound: CCCCCCCCCC[N+](C)(C)[O-] [N,N-Dimethyldecyl amine N-oxide]
- biodegradation in 28 days [1]: 97%

Compound: CCCCCCCC[N+](C)(C)[O-] [N,N-Dimethyloctyl amine N-oxide]
- biodegradation in 28 days [1]: 100%

Compound: CCCCCCCCCCCCCCCC[N+](C)(C)[O-] [N,N-Dimethylhexa decylamine N-oxide]
- biodegradation in 28 days [1]: <88%

Compound: CCCCCCCCCCCC[N+](C)(C)[O-] [LDAO, N,N-Dimethyldode cylamine N-oxide]
- biodegradation in 28 days [1]: 95%

Compound: [Cl-].[Na+] [NaCl, sodium chloride, reference compound]
- % cell lysis after 30 min (HEK293T-derived cells): 80%
- AAV2 viral titers after cell lysis (AAV2): significantly reduced viral titers
